Assay results: patent US8674118B2, “Compounds and methods for the treatment or prevention of flavivirus infections” (priority 2005, dated 2014)

Each molecule was assayed on HCV RNA replication (replicon cell lines Huh-7, 5.2 and ET) (assay: Cell-Based Luciferase Reporter HCV RNA Replication Assay). Conditions: Hepatitis C virus, Huh-7, 96 h.
Molecule `CC1CCC(C(=O)N(c2cc(C3=CC4CCC3C4)sc2C(=O)O)C2CCC(O)CC2)CC1` (stereo not drawn) [Compound 28, 5-bicyclo[2.2.1]hept-2-en-2-yl-3-[(4-trans-hydroxy-cyclohexyl)-(4-trans-methyl-cyclohexanecarbonyl)-amino]-thiophene-2-carboxylic acid] has an IC50 greater than 25 µM.

Same assay, conditions: Hepatitis C virus, Huh-7, 96 h, Huh-7, 5.2 or ET replicon cells, luciferase counts after 4 days incubation; read-out: IC50
Work on `C[C@H]1CC[C@H](C(=O)N(c2cc([C@H]3CC[C@@H](C)CC3)sc2C(=O)O)[C@H]2CC[C@H](O)CC2)CC1` [Compound 78, 3-[(trans-4-hydroxy-cyclohexyl)-(trans-4-methyl-cyclohexanecarbonyl)-amino]-5-(cis-4-methyl-cyclohexyl)-thiophene-2-carboxylic acid] yielded an IC50 of less than 5 µM.
For `CC1CCC(C(=O)N(c2cc(C3=CCC(C)(C)CC3)sc2C(=O)O)C2CCC(O)CC2)CC1` (stereo not drawn) [Compound 35, 5-(4,4-dimethyl-cyclohex-1-enyl)-3-[(4-trans-4-hydroxy-cyclohexyl)-(trans-4-methyl-cyclohexanecarbonyl)-amino]-thiophene-2-carboxylic acid], the IC50 was less than 5 µM.
With `CO[C@H]1CC[C@H](N(c2cc(C3CCC(C)(C)CC3)sc2C(=O)O)C(=O)[C@H]2CC[C@H](C)CC2)CC1` [Compound 21, 5-(4,4-Dimethyl-cyclohexyl)-3-[(trans-4-methoxy-cyclohexyl)-(trans-4-methyl-cyclohexanecarbonyl)-amino]-thiophene-2-carboxylic acid] the IC50 was less than 5 µM.
Molecule `C[C@H]1CC[C@H](C(=O)N(c2cc(C3=CCCCC3)sc2C(=O)O)C2CC[S+]([O-])CC2)CC1` (relative stereo) [Compound 69, 5-cyclohex-1-enyl-3-[(trans-4-methyl-cyclohexanecarbonyl)-(1-oxo-hexahydro-1lambda*4*-thiopyran-4-yl)-amino]-thiophene-2-carboxylic acid] has an IC50 of less than 5 µM.
`CC1CCC(C(=O)N(c2cc(C3=CCCCC3)sc2C(=O)O)C2CCC3(CC2)CC(=O)N(C)C3)CC1` (stereo not drawn) [Compound 84, 5-cyclohex-1-enyl-3-[(trans-4-methyl-cyclohexanecarbonyl)-cis-(2-methyl-3-oxo-2-aza-spiro[4.5]dec-8-yl)-amino]-thiophene-2-carboxylic acid] showed an IC50 of less than 5 µM.
Molecule `C[C@H]1CC[C@H](C(=O)N(c2cc(C3=CCCCC3)sc2C(=O)O)[C@H]2CC[C@@H](C)CC2)CC1` [Compound 53, 5-cyclohex-1-enyl-3-[(trans-4-methyl-cyclohexanecarbonyl)-(cis-4-methyl-cyclohexyl)-amino]-thiophene-2-carboxylic acid] has an IC50 of less than 5 µM.
Molecule `CC1CCC(C(=O)N(c2cc(C3=CCC4(CC3)OCCO4)sc2C(=O)O)C2CCC(O)CC2)CC1` (stereo not drawn) [Compound 14, 5-(1,4,Dioxa-spiro[4.5.]dec-7-en-8-yl)-3-[(trans-4-hydroxy-cyclohexyl)-(trans-4-methyl-cyclohexanecarbonyl)-amino]-thiophene-2-carboxylic acid] has an IC50 of less than 5 µM.
For `CCO[C@H]1CC[C@H](N(c2cc(C3=CCCCC3)sc2C(=O)O)C(=O)[C@H]2CC[C@H](C)CC2)CC1` [Compound 22, 5-Cyclohex-1-enyl-3-[(trans-4-ethoxy-cyclohexyl)-(trans-4-methyl-cyclohexanecarbonyl)-amino]-thiophene-2-carboxylic acid], the IC50 was less than 5 µM.
Molecule `C[C@H]1CC[C@H](C(=O)N(c2cc(C3=CCCCC3)sc2C(=O)O)C2CC3CCC(C3)C2)CC1` (relative stereo) [Compound 40, 3-[bicyclo[3.2.1]oct-3-yl-(trans-4-methylcyclohexanecarbonyl)-amino]-5-cyclohex-1-enyl-thiophene-2-carboxylic acid] has an IC50 of less than 5 µM.
Molecule `CC1CCC(C(=O)N(c2cc(C3CCC(O)CC3)sc2C(=O)O)C2CCC(O)CC2)CC1` (mixture of isomers) [Compound 85, 5-(4-cis/trans-hydroxy-cyclohexyl)-3-[(4-trans-hydroxy-cyclohexyl)-(4-trans-methyl-cyclohexanecarbonyl)-amino]-thiophene-2-carboxylic acid] has an IC50 of 5 to 25 µM.
Work on `CC1(C)CCC(N(c2cc(C3=CCCCC3)sc2C(=O)O)C(=O)[C@H]2CC[C@H](C)CC2)CC1` [Compound 38, 5-cyclohex-1-enyl-3-[(4,4-dimethyl-cyclohexyl)-(trans-4-methyl-cyclohexanecarbonyl)-amino]-thiophene-2-carboxylic acid] yielded an IC50 of less than 5 µM.
Molecule `C[C@H]1CC[C@H](C(=O)N(c2cc(C3=CCCCC3)sc2C(=O)O)C2CCN(c3cncnc3)CC2)CC1` [Compound 96, 5-cyclohex-1-enyl-3-[(trans-4-methyl-cyclohexanecarbonyl)-(1-pyrimidin-5-yl-piperidin-4-yl)-amino]-thiophene-2-carboxylic acid] has an IC50 of less than 5 µM.
Molecule `C[C@H]1CC[C@H](C(=O)N(c2cc([C@H]3CC[C@H](C)CC3)sc2C(=O)O)[C@H]2CC[C@H](O)CC2)CC1` [Compound 77, 3-[(trans-4-hydroxy-cyclohexyl)-(trans-4-methyl-cyclohexanecarbonyl)-amino]-5-(trans-4-methyl-cyclohexyl)-thiophene-2-carboxylic acid] has an IC50 of less than 5 µM.
`CC1(C)CCC(c2cc(N(C(=O)[C@H]3CC[C@H](C)CC3)[C@H]3CC[C@H](n4ccnn4)CC3)c(C(=O)O)s2)CC1` [Compound 135, 5-(4,4-dimethyl-cyclohexyl)-3-[(trans-4-methyl-cyclohexanecarbonyl)-(trans-4-[1,2,3]triazol-1-yl-cyclohexyl)-amino]-thiophene-2-carboxylic acid] gave an IC50 of less than 5 µM.
With `C[C@H]1CC[C@H](C(=O)N(c2cc(C3=CCCCC3)sc2C(=O)O)C2CCSCC2)CC1` [Compound 42, 5-cyclohex-1-enyl-3-[(trans-4-methyl-cyclohexanecarbonyl)-(tetrahydrothiopyran-4-yl)-amino]-thiophene-2-carboxylic acid] the IC50 was less than 5 µM.
In the case of `CC(C)N(C(=O)c1ccc(Cl)cc1Cl)c1cc(C2=CCCC2)sc1C(=O)O` [Compound 15, 5-Cyclopent-1-enyl-3-[(2,4-dichloro-benzoyl)-isopropyl-amino]-thiophene-2-carboxylic acid], the IC50 is reported as greater than 25 µM.
Molecule `CO[C@H]1CC[C@H](N(c2cc(C3=CCCCC3)sc2C(=O)O)C(=O)[C@H]2CC[C@H](C)CC2)CC1` [Compound 12, 5-Cyclohex-1-enyl-3-[(trans-4-methoxy-cyclohexyl)-(trans-4-methyl-cyclohexanecarbonyl)-amino]-thiophene-2-carboxylic acid] has an IC50 of less than 5 µM.
With `CC(C)N(C(=O)c1ccc(Cl)cc1Cl)c1cc(C2=CCCCC2)sc1C(=O)O` [Compound 31, 5-cyclohex-1-enyl-3-[(2,4-dichloro-benzoyl)-isopropyl-amino]-thiophene-2-carboxylic acid] the IC50 was 5 to 25 µM.
With `CC1CCC(C(=O)N(c2cc(C3=CCC(=O)CC3)sc2C(=O)O)C2CCC(O)CC2)CC1` (stereo not drawn) [Compound 25, 3-[(4-trans-hydroxy-cyclohexyl)-(4-trans-methyl-cyclohexanecarbonyl)-amino]-5-(4-oxo-cyclohex-1-enyl)-thiophene-2-carboxylic acid] the IC50 was 5 to 25 µM.
For `CC1CC=C(c2cc(N(C(=O)C3CCC(C)CC3)C3CCCCC3)c(C(=O)O)s2)CC1` (stereo not drawn) [Compound 47, RS-3-[cyclohexyl-(4-trans-methyl-cyclohexanecarbonyl)-amino]-5-(4-methyl-cyclohex-1-enyl)-thiophene-2-carboxylic acid], the IC50 was less than 5 µM.
Work on `C[C@H]1CC[C@H](C(=O)N(c2cc(C3=CCCC3)sc2C(=O)O)[C@H]2CC[C@H](O)CC2)CC1` [Compound 16, 5-Cyclopent-1-enyl-3-[(trans-4-hydroxy-cyclohexyl)-(trans-4-methyl-cyclohexanecarbonyl)-amino]-thiophene-2-carboxylic acid] yielded an IC50 of less than 5 µM.
`CO[C@H]1CC[C@H](N(c2cc(C3CCC(C(F)(F)F)CC3)sc2C(=O)O)C(=O)[C@H]2CC[C@H](C)CC2)CC1` (relative stereo) [Compound 108, 3-[(trans-4-methoxy-cyclohexyl)-(trans-4-methyl-cyclohexanecarbonyl)-amino]-5-(4-trifluoromethyl-cyclohexyl)-thiophene-2-carboxylic acid] showed an IC50 of less than 5 µM.
In the case of `CC1CCC(C(=O)N(c2cc(C3=CCCCC3)sc2C(=O)O)C2CCc3ccccc3C2)CC1` (stereo not drawn) [Compound 66, RS-5-cyclohex-1-enyl-3-[(4-trans-methyl-cyclohexanecarbonyl)-(1,2,3,4-tetrahydro-naphthalen-2-yl)-amino]-thiophene-2-carboxylic acid], the IC50 is reported as less than 5 µM.
`C[C@H]1CC[C@H](C(=O)N(c2cc(C3CCCCCC3)sc2C(=O)O)[C@H]2CC[C@H](O)CC2)CC1` [Compound 6, 5-Cycloheptyl-3-[(trans-4-hydroxy-cyclohexyl)-(trans-4-methyl-cyclohexanecarbonyl)-amino]-thiophene-2-carboxylic acid] was tested, and the IC50 was less than 5 µM.
Molecule `CO[C@H]1CC[C@H](N(c2cc(C3=CCC(C(F)(F)F)CC3)sc2C(=O)O)C(=O)[C@H]2CC[C@H](C)CC2)CC1` (relative stereo) [Compound 124, 3-[(trans-4-methoxy-cyclohexyl)-(trans-4-methyl-cyclohexanecarbonyl)-amino]-5-(4-trifluoromethyl-cyclohex-1-enyl)-thiophene-2-carboxylic acid] has an IC50 of less than 5 µM.
Molecule `C[C@H]1CC[C@H](C(=O)N(c2cc(C3=CCCCC3)sc2C(=O)O)[C@H]2CC[C@H](F)CC2)CC1` [Compound 70, 5-cyclohex-1-enyl-3-[(trans-4-fluoro-cyclohexyl)-(trans-4-methyl-cyclohexanecarbonyl)-amino]-thiophene-2-carboxylic acid] has an IC50 of less than 5 µM.
Molecule `C[C@H]1CC[C@H](C(=O)N(c2cc(C3CCCCC3)sc2C(=O)O)[C@H]2CC[C@H](O)CC2)CC1` [Compound 2, 5-Cyclohexyl-3-[(trans-4-hydroxy-cyclohexyl)-(trans-4-methyl-cyclohexanecarbonyl)-amino]-thiophene-2-carboxylic acid] has an IC50 of less than 5 µM.

Same assay, conditions: Huh-7, 5.2 or ET replicon cells, luciferase counts after 4 days incubation; read-out: IC50
Molecule `CC1CCC(C(=O)N(c2cc(C3=CCCCC3)sc2C(=O)O)C2CCC3(CC2)CN(C)C(=O)N3C)CC1` (stereo not drawn) [Compound 74, 5-cyclohex-1-enyl-3-[trans-(1,3-dimethyl-2-oxo-1,3-diaza-spiro[4.5]dec-8-yl)-(trans-4-methyl-cyclohexanecarbonyl)-amino]-thiophene-2-carboxylic acid] has an IC50 of less than 5 µM.
